Patent publication US6465476B1, “Immuno-modulator exhibiting antimicrobial and anti-mycrobacterial activities, method for producing the same and pharmaceutical preparation” (priority 1997, dated 2002)
Like-named read-outs stand apart in the source and are kept apart here.

Tests used:
[1] = tested on: antibody-forming cells (AFC) in the spleens; experiment: Antibody-forming cells in the spleen, immunodeficiency caused by irradiation (Jeme-Nordin's procedure); format: in vivo, mice F1 (CBA×C57BL/6); settings: irradiated mice 4 Gy
Method: Determination of immunotropic activity of isophonum was carried out. Immunotropic activity of isophonum was determined on a model of immunodeficiency caused by irradiation. To create an immunodeficient state the mice F1 (CBA×C57BL/6) were irradiated with gamma-rays on a radioterapeutic apparatus in a dose of 4 Gy (Gy is the irradiation unit gray) at an irradiation dose power of 0.55 Gr/min. The number of antibody-forming cells (AFC) in the spleens was calculated by Jeme-Nordin's procedure. Isophonum and diuciphonum were introduced per os over a wide range of doses. The investigation results are represented in Table 1.

macrophages = experiment: Phagocytic activity of macrophages (clearance from blood); format: in vivo, mice; settings: 500 μg per mouse per os
Description: The influence of the preparations in question on the phagocytic activity of macrophages was studid from clearence of the carcass in blood taken from the retroorbital sinus of mice that received the preparations per os. The results were estimated on the phagocytic index α (see Table 4).

Tubazide-resistent H37Rv = format: in vivo, tuberculosis mycobacteria; mice of the CBA line; settings: for Damage index / Life duration / Weight of the lung: Tubazide-resistent H37Rv
[2] = tested on: Kyp-4 strain of leprosy mycobacteria; experiment: Antileprous activity in mice infected by Shepard's procedure; format: in vivo, leprosy mycobacteria; male mice of the CBA line
Description: Antileprous activity of isophonum as compared with that of diuciphonum was studied on male mice of the CBA line infected with the laboratory Kyp-4 strain of leprosy mycobacteria taken in an amount of 5000 and introduced intraplantedly by Shepard's procedure. The experiment lasted six months from the 7th of February to the […] 1996. Observed were 5 groups of mice with 15 mice in each group. All the animals were kept under the same conditions of the vivarium on a standard diat.
The first group (controls): during six months of the experiment the mice received 0.5 ml of a starch suspension through a probe five times a week. After six months the animals were killed through a cervical dislocation of backbone, the organs were subjected to a bacterioscopic investigation, no pathologic deviations characteristic of any of the groups were found. The bacteriscopic investigation of the infected site was carried out by grinding the mouse foot in 2 ml of 0.1 percent solution of albumin, making a smear from 0.01 ml of the suspenstion and painting it by Ziel-Nielson's procedure and counting the number of leprosy micobacteria in 60 fields of vision to determine the number of micobacteria per mouse in each group.

agent of leprosy = experiment: Example 1, patient X, border-line tuberculoid leprosy; format: in vivo, human; design: histological index: scale not given here; Leucocytes / T-lymphocytes: unit not given here
Description: The patient X was admitted to a clinic with a diagnosis “border-line tuberculoid leprosy”. They had been considering themself ill for two years. They supposed that they had been infected in Africa where they had worked 8 years ago and used to receive vegetables from lepers. On the skin of the back, on the skin of the lateral abdiminal surfaces, on the left hip and shin, the left temple area of the head there were yellowish-reddish papules with a rust-coloured hue and sized 1.5 times 2 cm to 4 times 6 cm with no sensitivity in ther center. Disorder of sensitivity was noted along the length of peroneal and elbow nerves. The agent of leprosy was neither detected in the scrape from the nasal mucosa nor in the lymph on the bacterioscopic investigation. […] In the surface layers of derma there were multiple infiltrates and in the deeper layers of the skin there were focal and strand infiltrates. The histological index was equal to 1.1. The patient was prescribed a treatment in the form of isophonum to be taken internally 0.2 g each time twice a day. After 3.5 months all the elements (plaques) on the skin completely resolved and were replaced by hyperpigmented spots which after 4 months completely gained the colour of a normal skin. […] The patient was not hospitalyzed and received home treatment without interrupting their work. […] The histological index equaled 0. When histological investigation was repeated after 7 months with the purpose of transfering the patient under dispensary observation, the agent of leprosy was not detected either, in the surface layer of the derma were noted some small infiltrates out of lymphocytes with epithelioid cells in the form of accumulations.
In deeper layers of the skin there were small infiltrates around the blood vessels. It was decided to prolong the treatment of the patient for 6 months by administering isophonum internally in combination with diuciphonum.

[3] = tested on: chlamydious infection, PCND; experiment: Double blind clinical test, chlamydiosis and pulmonary chronic nonspecific diseases; format: in vivo, human
Method: The investigation was carried out randomizedly by a “double blind method” on 45 patients aged 25 to 49 years.
The group I consisting of 15 patients (10 persons with pulmonary chronic nonspecific diseases (PCND), 6 of them having chronic catarrhal obstructive bronchitis and 4 having chronic catarrhal nonobstructive bronchitis; 4 persons with chlamydious infection and one person with ureaplasmic infection) received the preparation claimed as monotherapy in a daily dose of 200 mg during 30 days. The group II consisting of 15 patients (8 persons with chlamydious infection, 7 persons with PCND, 5 of them having chronic catarrhal bronchitis, 2 having bronchiectatic disease) received the preparation of the present invention as monotherapy in a daily dose of 400 mg during 30 days. The group III consisting of 15 patients (13 persons with PCND, 7 of them having chronic catarrhal nonobstructive bronchitis and 6 having chronic catarrhal obstructive bronchitis; 2 persons with chlamydious infection) received a placebo.

Cc1[nH]c(=O)[nH]c(=O)c1S(=O)(=O)NNC(=O)c1ccncc1.O [Isophonum, N-(6-methyl-2,4-dioxo-1,2,3,4-tetrahydro-5-pyrimidinsulfon)-N′-isonicotinoylhydrazide hydrate]
AFC-number in the spleen ([1]; 10 μg per mouse per os): 1013 ± 126 | Immune response stimulation index ([1]; 10 μg per mouse per os): 3.63 ± 0.57 | AFC-number in the spleen ([1]; 100 μg per mouse per os): 1173 ± 125 | Immune response stimulation index ([1]; 100 μg per mouse per os): 4.28 ± 0.8 | AFC-number in the spleen ([1]; 1000 μg per mouse per os): 1216 ± 124 | Immune response stimulation index ([1]; 1000 μg per mouse per os): 4.46 ± 0.9 | Phagocytic index (macrophages): 6.55 ± 0.06 | stimulation of the phagocytic activity of macrophages (macrophages): 56% | Phagocytic index, percent of controls (macrophages; controls 100%): (156%) | Damage index (Tubazide-resistent H37Rv; 100 μg per mouse): 1.91 ± 0.18 | Life duration (Tubazide-resistent H37Rv; 100 μg per mouse): 35.2 ± 3.4 | Weight of the lung (Tubazide-resistent H37Rv; 100 μg per mouse): 493.4 ± 65.1 | Damage index (Tubazide-resistent H37Rv; 200 μg per mouse): 1.72 ± 0.24 | Life duration (Tubazide-resistent H37Rv; 200 μg per mouse): 37.1 ± 6.2 | Weight of the lung (Tubazide-resistent H37Rv; 200 μg per mouse): 478.2 ± 60.8 | antituberculous action (Tubazide-resistent H37Rv; mycobacteria resistent to tubazide and streptomycin): pronounced antituberculous action | activity against the leprosy mycobacteria ([2]; 2.5 mg/kg): bactericide activity | Percentage of infected animals ([2]; after six months, isophonum dose 2.5 mg/kg): 0% | time after which all the elements (plaques) on the skin completely resolved (agent of leprosy; 0.2 g twice a day): 3.5 months | histological index (agent of leprosy; 3 months later, 0.2 g twice a day): 0 | histological index (agent of leprosy; before treatment): 1.1 | B-lymphocytes, % (agent of leprosy; day 0 (before treatment)): 12% | Leucocytes (agent of leprosy; day 0 (before treatment)): 6.1 | Lymphocytes, % (agent of leprosy; day 0 (before treatment)): 18% | T-helpers, % (agent of leprosy; day 0 (before treatment)): 50% | T-lymphocytes (agent of leprosy; day 0 (before treatment)): 57 | T-suppressors (agent of leprosy; day 0 (before treatment)): 4 | B-lymphocytes, % (agent of leprosy; day 180, 0.2 g twice a day): 17% | Leucocytes (agent of leprosy; day 180, 0.2 g twice a day): 6.8 | Lymphocytes, % (agent of leprosy; day 180, 0.2 g twice a day): 30% | T-helpers, % (agent of leprosy; day 180, 0.2 g twice a day): 63% | T-lymphocytes (agent of leprosy; day 180, 0.2 g twice a day): 80 | T-suppressors (agent of leprosy; day 180, 0.2 g twice a day): 27 | Phagocytosis (agent of leprosy; first column (no day head; presumably day 0)): 30 | Phagocytosis (agent of leprosy; second column (no day head; presumably day 180)): 5 | side effects ([3]; dose of 200 mg and dose of 400 mg): does not have any side effects | number of patients with improvement of clinico-immunologic indices ([3]; group I, 15 patients, 200 mg per day, 30 days): 14 people | number of patients with improvement of clinico-immunologic parameters ([3]; group II, 15 patients, 400 mg daily, 30 days): 14 persons | signs of individual intolerance ([3]; one patient of group I, 200 mg per day, 3rd day of intake): nausea and vomiting
